The values below come from ChEMBL document CHEMBL1130595, “New generation dopaminergic agents. 5. Heterocyclic bioisosteres that exploit the 3-OH-N1-phenylpiperazine dopaminergic template” (Bioorg Med Chem Lett, 1998).

pKi: −log10 of the molar value.

Assay [1] concerns the target T1, D(2) dopamine receptor (Rattus norvegicus, UniProt P61169).
Description: Affinity for Dopamine receptor D2 in rat striatal membranes for high agonist state using [3H]quinpirole
The target of assay [2] is T2, D(2) dopamine receptor (Homo sapiens, UniProt P14416). Description: Ratio of the affinity against D2 receptor at low antagonist state to that of D2 receptor at high agonist state. The assay is classed as functional.
T2 sequence (P14416 whole entry): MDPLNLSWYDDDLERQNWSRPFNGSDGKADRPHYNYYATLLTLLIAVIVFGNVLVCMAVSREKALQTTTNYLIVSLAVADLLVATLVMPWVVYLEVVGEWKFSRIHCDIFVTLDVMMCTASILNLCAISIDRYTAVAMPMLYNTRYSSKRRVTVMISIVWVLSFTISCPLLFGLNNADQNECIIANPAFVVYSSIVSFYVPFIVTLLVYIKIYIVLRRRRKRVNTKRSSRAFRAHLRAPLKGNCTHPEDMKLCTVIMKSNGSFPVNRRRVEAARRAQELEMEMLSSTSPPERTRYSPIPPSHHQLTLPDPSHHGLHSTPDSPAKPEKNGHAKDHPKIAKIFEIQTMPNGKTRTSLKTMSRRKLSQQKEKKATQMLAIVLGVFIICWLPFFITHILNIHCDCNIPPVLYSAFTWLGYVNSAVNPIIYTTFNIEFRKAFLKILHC
For another assay, the target named is D(3) dopamine receptor (Homo sapiens, UniProt P35462). Description: Affinity towards human Dopamine receptor D3 expressed in CHO cells using [3H]spiperone. The assay is classed as cell-based.
Chain of D(3) dopamine receptor (P35462 whole entry): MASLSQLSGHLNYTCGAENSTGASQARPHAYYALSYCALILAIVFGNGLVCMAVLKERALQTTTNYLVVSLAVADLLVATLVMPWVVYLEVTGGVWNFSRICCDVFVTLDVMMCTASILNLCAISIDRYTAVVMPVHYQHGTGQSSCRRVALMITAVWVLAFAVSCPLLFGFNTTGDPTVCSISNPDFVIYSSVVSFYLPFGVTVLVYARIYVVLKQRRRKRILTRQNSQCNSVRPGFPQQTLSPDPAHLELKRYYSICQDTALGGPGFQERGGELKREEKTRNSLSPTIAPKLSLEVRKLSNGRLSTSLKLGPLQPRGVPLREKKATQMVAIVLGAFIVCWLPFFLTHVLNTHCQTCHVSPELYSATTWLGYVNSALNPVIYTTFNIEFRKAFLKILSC
For assay [3], the target named is T2, D(2) dopamine receptor. Description: Affinity towards human Dopamine receptor D2 expressed in CHO cells using [3H]spiperone. The assay is classed as cell-based.
A further assay addresses T3, D(4) dopamine receptor (Homo sapiens, UniProt P21917).
T3 sequence (P21917 whole entry): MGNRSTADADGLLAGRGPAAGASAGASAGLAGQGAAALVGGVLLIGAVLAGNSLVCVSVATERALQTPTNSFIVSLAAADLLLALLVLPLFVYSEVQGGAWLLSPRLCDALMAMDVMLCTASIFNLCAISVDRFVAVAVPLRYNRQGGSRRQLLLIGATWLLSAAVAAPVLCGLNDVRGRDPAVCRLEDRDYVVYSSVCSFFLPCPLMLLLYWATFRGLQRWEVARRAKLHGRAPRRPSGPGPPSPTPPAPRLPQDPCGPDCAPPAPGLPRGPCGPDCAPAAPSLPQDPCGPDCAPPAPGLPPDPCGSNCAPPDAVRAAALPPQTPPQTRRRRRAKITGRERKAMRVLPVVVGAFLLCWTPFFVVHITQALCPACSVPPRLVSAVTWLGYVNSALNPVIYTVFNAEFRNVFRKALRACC
Description: Affinity towards human Dopamine receptor D4.4 expressed in CHO cells using [3H]spiperone. The assay is classed as cell-based.

Assay [4] deals with T1, D(2) dopamine receptor. This is another data set of the same source.
Description: Affinity of compound for the Dopamine receptor D2 in rat striatal membranes was determined for low antagonist state in rat striatal membranes using [3H]spiperone
Assay [5] concerns the target T1, D(2) dopamine receptor. Kind of assay: Affinity of compound for the D2 receptors in rat striatal membranes was determined for low antagonist state in rat striatal membranes using [3H]spiperone. The assay is classed as functional, cell membranes, Membrane.
Assay [6] deals with T1, D(2) dopamine receptor. Description: Affinity of compound for the Dopamine receptor D2 in rat striatal membranes was determined for […] in rat striatal membranes using [3H]spiperone. The assay is classed as functional, cell membranes, Membrane.

T1 sequence (P61169 whole entry): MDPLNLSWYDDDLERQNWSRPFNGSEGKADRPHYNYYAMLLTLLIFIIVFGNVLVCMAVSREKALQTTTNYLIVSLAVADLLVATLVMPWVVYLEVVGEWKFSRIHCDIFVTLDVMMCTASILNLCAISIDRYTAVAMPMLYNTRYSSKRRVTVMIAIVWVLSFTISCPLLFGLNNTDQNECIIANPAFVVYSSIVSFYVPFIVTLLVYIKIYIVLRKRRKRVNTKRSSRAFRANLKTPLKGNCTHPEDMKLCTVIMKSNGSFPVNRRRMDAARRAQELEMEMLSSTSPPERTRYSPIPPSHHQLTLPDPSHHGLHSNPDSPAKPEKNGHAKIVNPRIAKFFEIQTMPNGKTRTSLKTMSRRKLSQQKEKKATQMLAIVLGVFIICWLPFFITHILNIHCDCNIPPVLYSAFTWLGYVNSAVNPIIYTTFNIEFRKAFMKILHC

Take `Brc1ccc(N2CCN(Cc3ccccc3)CC2)c2cc[nH]c12`: the pKi was 7.57 on D(2) dopamine receptor [1]; 7.25 on D(3) dopamine receptor; 7.33 on D(2) dopamine receptor [3]; 8.59 on D(4) dopamine receptor; 7.91 at D(2) dopamine receptor [4]. In addition, the Ratio on D(2) dopamine receptor [2] stood at 0.5.

For the compound `c1ccc(CN2CCN(c3cccc4[nH]ccc34)CC2)cc1`, the results for the pKi at D(3) dopamine receptor and at D(4) dopamine receptor were 7.45 and 7.83, respectively.

In the case of `Clc1ccc2[nH]ccc2c1N1CCN(Cc2ccccc2)CC1`, the pKi on D(2) dopamine receptor [1] is 8.04; at D(3) dopamine receptor, 7.02; at D(2) dopamine receptor [3], 7.09; on D(4) dopamine receptor, 8.77; at D(2) dopamine receptor [5] it was 7.37. In addition, the Ratio at D(2) dopamine receptor [2] stood at 5.

On to `O=c1[nH]c2cccc(N3CCN(Cc4ccccc4)CC3)c2[nH]1`, for which the pKi is 7.25 on D(3) dopamine receptor and 7.84 on D(4) dopamine receptor.

For the compound `c1ccc(CN2CCN(c3cccc4[nH]cnc34)CC2)cc1`, the pKi is 8.01 on D(2) dopamine receptor [1]; 6.06 at D(3) dopamine receptor; 6.59 at D(2) dopamine receptor [3]; 7.33 on D(4) dopamine receptor; 6.97 at D(2) dopamine receptor [4]. Besides, the Ratio on D(2) dopamine receptor [2] was 11.

On to `O=C1Cc2c(cccc2N2CCN(Cc3ccccc3)CC2)N1`, for which the pKi on D(2) dopamine receptor [1] was 9.25; on D(3) dopamine receptor, 8.27; at D(2) dopamine receptor [3], 8.10; at D(4) dopamine receptor it was 8.52; at D(2) dopamine receptor [4] it was 8.09. In addition, the Ratio at D(2) dopamine receptor [2] was 14.

For the compound `O=C1Cc2c(ccc(Cl)c2N2CCN(Cc3ccccc3)CC2)N1`, the pKi was 7.07 on D(2) dopamine receptor [1]; 6.23 on D(3) dopamine receptor; 6.27 at D(2) dopamine receptor [3]; 8.06 at D(4) dopamine receptor; 6.39 on D(2) dopamine receptor [4]. Also, the Ratio at D(2) dopamine receptor [2] came to 7.

For `FC(F)(F)c1nc2c(N3CCN(Cc4ccccc4)CC3)cccc2[nH]1`, the pKi is 9.29 at D(2) dopamine receptor [1]; 8.48 on D(2) dopamine receptor [6]; 7.83 at D(3) dopamine receptor; 8.39 on D(2) dopamine receptor [3]; 8.54 at D(4) dopamine receptor. Moreover, the Ratio on D(2) dopamine receptor [2] stood at 6.
